Laboratory results as given in ChEMBL document CHEMBL1201862, “PubChem BioAssay data set” (2004).
Active and inactive are the calls of the source.

Experiments:
BJ [1] = experiment: cytotoxicity toward BJ-TERT fibroblasts, dose response, cell-based, RAS-independent, luminescence (AID 1933); format: functional; conditions: Homo sapiens
BJ [2] = experiment: cells; format: functional, cell-based; conditions: Homo sapiens
BJ [3] = experiment: cytotoxicity toward BJ-TERT-LT-ST fibroblasts, dose response, cell-based, RAS-independent, luminescence (AID 1935); format: functional; conditions: Homo sapiens;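 also: BJ fibroblasts immortalized with TERT plus LT and ST oncogenes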
[4] = cytotoxicity toward DRD oncogenic fibroblasts, dose response, cell-based, non-viral oncogenic, luminescence (AID 1934); format: functional; conditions: Homo sapiens
[5] = growth suppression of PTEN-null colon cells, dose response, cell-based, HCT116 PTEN knockout (AID 1047); format: functional;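 also: HCT116 colon tumor cells with PTEN knocked out; cells exposed to compound for 60 hours before readout; potency for loss of cell viability measured by luminescence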
[6] = growth suppression of beta-catenin-knockout colon cells, dose response, cell-based, HCT116, human colon tumor (AID 1045); format: functional;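 also: HCT116 colon tumor cells with beta catenin knocked out; cells exposed to compound for 60 hours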
[7] = target: Luciferin 4-monooxygenase (Photinus pyralis, UniProt P08659); experiment: firefly luciferase enzyme inhibitors, dose response, biochemical, luminescence (AID 1891)
[8] = Luminescence Cell-Based Dose Confirmation HTS to Identify Inhibitors of Platelet Dense Granule Release. [Related pubchem assays: 1663 (Primary HTS), 1678 (Summary of Project)]; format: functional
Aminopeptidase N = target: T1, Aminopeptidase N (Plasmodium falciparum FcB1/Columbia, UniProt O96935); experiment: P. falciparum M1AAP inhibitors, biochemical, fluorogenic H-Leu-NHMec substrate, 1536-well (AID 1445); set-up: species or system Plasmodium falciparum 3D7, 3D7
T1 sequence (O96935 whole entry): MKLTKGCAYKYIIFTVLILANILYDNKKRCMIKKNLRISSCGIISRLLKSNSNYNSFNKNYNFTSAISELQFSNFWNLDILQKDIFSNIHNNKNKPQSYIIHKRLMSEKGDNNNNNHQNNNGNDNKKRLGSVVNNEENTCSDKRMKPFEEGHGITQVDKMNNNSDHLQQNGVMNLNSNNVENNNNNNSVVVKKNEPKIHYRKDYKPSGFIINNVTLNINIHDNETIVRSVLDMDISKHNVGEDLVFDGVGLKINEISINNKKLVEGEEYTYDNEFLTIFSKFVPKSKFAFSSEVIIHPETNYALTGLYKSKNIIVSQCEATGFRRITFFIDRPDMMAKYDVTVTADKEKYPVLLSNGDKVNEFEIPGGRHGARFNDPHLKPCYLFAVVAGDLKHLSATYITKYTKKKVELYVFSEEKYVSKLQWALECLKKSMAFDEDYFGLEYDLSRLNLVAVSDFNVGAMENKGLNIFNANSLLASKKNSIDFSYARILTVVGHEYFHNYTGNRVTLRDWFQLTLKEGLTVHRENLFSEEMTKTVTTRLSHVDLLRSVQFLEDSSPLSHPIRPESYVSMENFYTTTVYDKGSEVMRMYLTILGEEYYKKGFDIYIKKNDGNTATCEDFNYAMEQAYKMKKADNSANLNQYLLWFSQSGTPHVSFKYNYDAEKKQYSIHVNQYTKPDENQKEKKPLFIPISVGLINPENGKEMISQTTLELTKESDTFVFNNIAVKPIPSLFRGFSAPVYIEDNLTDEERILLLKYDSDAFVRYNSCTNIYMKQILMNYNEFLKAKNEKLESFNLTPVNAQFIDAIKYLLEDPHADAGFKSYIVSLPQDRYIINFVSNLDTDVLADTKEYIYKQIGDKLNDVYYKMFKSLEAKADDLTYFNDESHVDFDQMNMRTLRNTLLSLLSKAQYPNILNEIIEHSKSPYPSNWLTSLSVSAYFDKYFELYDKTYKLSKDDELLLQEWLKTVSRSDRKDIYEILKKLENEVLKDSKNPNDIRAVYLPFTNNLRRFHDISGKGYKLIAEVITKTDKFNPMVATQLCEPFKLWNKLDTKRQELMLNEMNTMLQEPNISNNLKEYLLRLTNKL

[9] = P. falciparum Dd2 growth inhibitors, dose response, SYBR Green, cherry-picked samples (AID 1159567); format: functional, cell-based
[10] = target: T2, Replicative DNA helicase DnaB (Mycobacterium tuberculosis, UniProt P9WMR3); experiment: DnaB intein splicing inhibitors, dose response, biochemical, cell-free fluorescence (AID 449749); format: functional
T2 sequence (P9WMR3 whole entry): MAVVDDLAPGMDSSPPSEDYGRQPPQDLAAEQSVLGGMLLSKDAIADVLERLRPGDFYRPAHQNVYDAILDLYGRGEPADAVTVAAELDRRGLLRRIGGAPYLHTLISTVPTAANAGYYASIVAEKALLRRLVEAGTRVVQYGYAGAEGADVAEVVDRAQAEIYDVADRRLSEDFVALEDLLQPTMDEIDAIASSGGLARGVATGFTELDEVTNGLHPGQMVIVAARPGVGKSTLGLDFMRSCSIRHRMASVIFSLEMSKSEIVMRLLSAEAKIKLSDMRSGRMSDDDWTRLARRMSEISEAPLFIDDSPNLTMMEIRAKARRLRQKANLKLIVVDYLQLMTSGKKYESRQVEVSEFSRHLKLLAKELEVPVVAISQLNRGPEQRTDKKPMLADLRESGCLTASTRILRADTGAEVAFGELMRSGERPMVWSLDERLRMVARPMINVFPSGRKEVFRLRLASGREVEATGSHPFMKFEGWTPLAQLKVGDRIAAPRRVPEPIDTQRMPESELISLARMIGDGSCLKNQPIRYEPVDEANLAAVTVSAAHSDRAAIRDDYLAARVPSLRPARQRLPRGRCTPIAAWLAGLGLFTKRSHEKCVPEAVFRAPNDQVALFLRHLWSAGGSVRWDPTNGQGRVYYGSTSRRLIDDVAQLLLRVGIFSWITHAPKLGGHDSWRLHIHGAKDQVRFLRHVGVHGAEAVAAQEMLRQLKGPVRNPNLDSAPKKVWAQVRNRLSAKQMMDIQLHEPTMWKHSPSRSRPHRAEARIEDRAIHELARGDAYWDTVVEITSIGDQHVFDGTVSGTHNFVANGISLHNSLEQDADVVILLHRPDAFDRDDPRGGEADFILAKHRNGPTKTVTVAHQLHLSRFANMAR

Protein RecA = target: T3, Protein RecA (Mycobacterium tuberculosis, UniProt P9WHJ3); experiment: Fluorescence Cell-Free Homogeneous Dose Retest to Identify Inhibitors of RecA-Intein Splicing Activity. [Related pubchem assays (depositor defined):AID2097, AID2223, AID489010, AID492950]; format: functional
T3 sequence (P9WHJ3 whole entry): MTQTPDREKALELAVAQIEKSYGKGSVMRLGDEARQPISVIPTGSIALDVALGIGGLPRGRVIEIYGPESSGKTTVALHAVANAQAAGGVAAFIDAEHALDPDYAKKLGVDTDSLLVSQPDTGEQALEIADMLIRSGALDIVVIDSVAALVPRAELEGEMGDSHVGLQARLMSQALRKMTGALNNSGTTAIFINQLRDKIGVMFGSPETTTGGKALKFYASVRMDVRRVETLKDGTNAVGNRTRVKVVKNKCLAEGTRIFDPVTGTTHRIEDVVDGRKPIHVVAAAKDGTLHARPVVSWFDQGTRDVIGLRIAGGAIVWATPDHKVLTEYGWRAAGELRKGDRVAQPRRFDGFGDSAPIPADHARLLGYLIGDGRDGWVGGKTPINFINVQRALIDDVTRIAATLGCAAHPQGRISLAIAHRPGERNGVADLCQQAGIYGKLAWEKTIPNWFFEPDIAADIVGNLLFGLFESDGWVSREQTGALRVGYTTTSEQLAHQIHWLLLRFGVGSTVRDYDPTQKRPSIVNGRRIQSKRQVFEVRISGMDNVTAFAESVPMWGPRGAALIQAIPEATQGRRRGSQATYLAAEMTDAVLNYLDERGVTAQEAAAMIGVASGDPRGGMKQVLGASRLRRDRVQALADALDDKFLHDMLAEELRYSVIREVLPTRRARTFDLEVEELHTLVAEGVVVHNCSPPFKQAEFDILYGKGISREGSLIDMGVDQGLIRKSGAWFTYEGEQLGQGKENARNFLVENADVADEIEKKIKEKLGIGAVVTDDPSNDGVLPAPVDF

Nonstructural protein 1 = Nonstructural protein 1 (Influenza A virus, UniProt Q194T2); format: functional, Influenza A virus (A/California/07/2009(H1N1))
Vero = experiment: cells; format: functional; conditions: Chlorocebus sabaeus
[11] = NIH-3T3 fibroblast cytotoxicity, dose response, cytotoxicity control, cell-based, fluorescence, Alamar Blue, secondary assay (AID 2327); format: functional;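 also: NIH-3T3 mouse fibroblasts cultured with fluconazole at 8 µg/mL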
[12] = Shn3 3'UTR reporter inhibitors, dose response, cell-based, Clone20 osteoblasts, firefly luciferase, cherry-picked (AID 624132); format: functional;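 also: firefly luciferase luminescence from reporter carrying the Shn3 3'UTR in osteoblasts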
[13] = inhibitors of HIV Env-driven cell fusion, dose response, cherry-pick (AID 652057); format: functional, cell-based

Luciferin 4-monooxygenase, sequence (P08659 whole entry): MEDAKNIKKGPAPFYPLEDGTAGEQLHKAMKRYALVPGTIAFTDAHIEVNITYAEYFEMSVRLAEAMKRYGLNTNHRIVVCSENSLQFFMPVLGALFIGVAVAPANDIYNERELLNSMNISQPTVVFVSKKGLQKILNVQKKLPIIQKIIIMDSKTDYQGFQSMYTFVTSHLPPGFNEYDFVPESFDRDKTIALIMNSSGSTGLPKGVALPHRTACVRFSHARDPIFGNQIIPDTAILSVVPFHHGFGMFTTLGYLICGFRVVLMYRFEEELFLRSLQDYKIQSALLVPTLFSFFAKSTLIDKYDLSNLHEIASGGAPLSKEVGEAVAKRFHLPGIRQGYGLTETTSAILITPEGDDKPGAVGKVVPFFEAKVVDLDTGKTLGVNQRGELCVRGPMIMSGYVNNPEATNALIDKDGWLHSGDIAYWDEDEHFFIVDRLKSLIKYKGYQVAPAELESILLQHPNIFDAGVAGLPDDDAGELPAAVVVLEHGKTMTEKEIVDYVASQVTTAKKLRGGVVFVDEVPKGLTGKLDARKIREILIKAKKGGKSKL
Nonstructural protein 1, sequence (Q194T2 whole entry): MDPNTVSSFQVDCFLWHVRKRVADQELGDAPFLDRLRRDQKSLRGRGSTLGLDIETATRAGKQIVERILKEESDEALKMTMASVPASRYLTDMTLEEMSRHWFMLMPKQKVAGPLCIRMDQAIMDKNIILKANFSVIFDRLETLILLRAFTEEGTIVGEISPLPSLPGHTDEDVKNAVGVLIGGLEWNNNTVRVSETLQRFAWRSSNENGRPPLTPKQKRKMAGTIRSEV

## CCCc1nnc(NC(=O)CCC(=O)N2CCN(Cc3ccc(OC)c(F)c3)CC2)s1
BJ [1]
  EC50: 25.9 µM (active)
BJ [2]
  EC50: > 150 µM (inconclusive)
BJ [3]
  EC50: > 150 µM (not active)
[4]
  EC50: > 150 µM (not active)

## COc1ccc(C(=O)Nc2ccccc2C(=O)N(Cc2ccco2)C(C(N)=O)C(C)C)cc1 (stereo not drawn)
[5]
  EC50: 6.76 µM (active)
[6]
  EC50: 9.3 µM (active)

## O=C1Nc2ccccc2Nc2ncccc21
[7]
  EC50: > 112 µM (not active)
[8]
  EC50: > 112 µM (not active)

## CC1CCCCN1S(=O)(=O)c1ccc(C(=O)Nc2ccccc2-c2nc3ccccc3[nH]2)cc1 (stereo not drawn)
[5]
  EC50: 17 µM (active)
[6]
  EC50: 25.5 µM (active)

## CCC(C)(C)NC(=O)CN(Cc1ccc2c(c1)OCO2)C(=O)CCC(=O)Nc1ccccn1
Aminopeptidase N
  IC50: 67 µM (active)

## Cc1ccc2nc(NC(=O)CN3C(=O)NC4(CCCC4)C3=O)sc2c1
[7]
  EC50: 80 µM (active)
[8]
  EC50: > 112 µM (not active)

## COc1cc(/C=C/C(=O)c2cccc([N+](=O)[O-])c2)cc(OC)c1OC
[5]
  EC50: 3.46 µM (active)
[6]
  EC50: 2.7 µM (active)

## CCOc1ccccc1N1CC(C(=O)Nc2nccs2)CC1=O (stereo not drawn)
[7]
  EC50: > 112 µM (not active)
[8]
  EC50: > 112 µM (not active)

## COc1cccc(-c2ccc3c(c2)[C@H]2[C@H](CCN2C(=O)C2CCCCC2)[C@@H](CO)N3)c1
[9]
  AC50: 4.95 µM (active)

## COc1cc(/C=C2\C(=O)N(c3ccc(NC(C)=O)cc3)N=C2c2ccccc2)ccc1O
[10]
  AC50: > 380 µM (inactive)
Protein RecA
  EC50: > 380 µM (inconclusive)

## CC1(C)Cc2c(sc3nc(-c4cccs4)n(N)c(=O)c23)CO1
[5]
  EC50: 16.7 µM (active)
[6]
  EC50: 23.9 µM (active)

## C/C(CC(=O)Nc1cc(C)ccn1)=N\NC(=O)c1cccc(C)c1
[10]
  AC50: 9.58 µM (active)
Protein RecA
  EC50: 4.04 µM (active)

## O=C(CNCc1ccccn1)Nc1ccc([N+](=O)[O-])cc1C(=O)Nc1ccccc1F
Nonstructural protein 1
  IC50: 5.49 µM (active)

## COc1cc(OC)c(-c2nnc3n(CCc4ccccc4)c(=O)c4ccccc4n23)cc1OC
[7]
  EC50: > 112 µM (not active)
[8]
  EC50: > 112 µM (not active)

## O=C(/C=C/c1ccc(Cl)cc1Cl)c1cccnc1
[5]
  EC50: 7.26 µM (active)
[6]
  EC50: 5.09 µM (active)
Vero
  CC50: > 25 µM (active)

## CCCOc1ccc(/C=N/Nc2ccccc2[N+](=O)[O-])c(O)c1
BJ [1]
  EC50: 11.3 µM (active)
BJ [2]
  EC50: 12.2 µM (active)
BJ [3]
  EC50: > 150 µM (inconclusive)
[4]
  EC50: 10.1 µM (active)

## Cc1cc(N(C)N)nc(NC(=O)NS(=O)(=O)c2ccccc2Cl)n1
Nonstructural protein 1
  IC50: 5.96 µM (active)

## O=C(Nc1ccc(-c2nc3ccccc3o2)cc1)C1CCCO1 (stereo not drawn)
[7]
  EC50: 2.6 µM (active)
[8]
  EC50: 2.58 µM (active)

## COc1ccccc1C(=O)N1CCN(c2cccc(Cl)c2)CC1
BJ [1]
  EC50: 1.79 µM (active)
BJ [2]
  EC50: 38.6 µM (inconclusive)
BJ [3]
  EC50: 0.833 µM (inconclusive)
[4]
  EC50: 1.37 µM (active)

## CC(=O)Nc1cccc(NC(=O)C2CCCN2C(=O)Nc2ccc(Cl)cc2)c1 (stereo not drawn)
[11]
  EC50: > 160 µM (inactive)
Aminopeptidase N
  IC50: 84.1 µM (active)

## CC(C)(C)C(=O)Nc1cc(S(=O)(=O)N2CCCCC2)ccc1N1CCCCC1
[12]
  AC50: 23.1 µM (active)

## CC(=O)N1N=C(c2c(-c3ccccc3)c3cc(Br)ccc3[nH]c2=O)CC1c1ccco1 (stereo not drawn)
Aminopeptidase N
  IC50: 58.8 µM (active)

## COc1cc(C(c2sc3nc(C)nn3c2O)N2CCOCC2)cc(OC)c1OC (stereo not drawn)
[7]
  EC50: > 112 µM (not active)
[8]
  EC50: 18.6 µM (active)

## C[C@H](CO)N1C[C@H](C)[C@H](CN(C)S(=O)(=O)c2ccc(C#N)cc2)Oc2ncc(/C=C/c3ccccc3)cc2C1=O
[13]
  AC50: 7.61 µM (active)
